Laboratory results published in patent US20240018128A1, “PESTICIDALLY ACTIVE HETEROCYCLIC DERIVATIVES WITH SULFUR CONTAINING SUBSTITUENTS” (SYNGENTA CROP PROTECTION AG, priority 2020, published 2024).

Tests used:
Format in all cases: in vivo
[1] = test system: Diabrotica balteata (corn root worm); experiment: Example B1: Activity against Diabrotica balteata (corn root worm); conditions: 96 h, application rate 200 ppm, maize sprouts sprayed, L2 larvae, 4 days after infestation, read-out: effect in at least one of the two categories (mortality or growth inhibition)
Description: Example B1: Activity Against Diabrotica Balteata (Corn Root Worm)
Maize sprouts placed onto an agar layer in 24-well microtiter plates were treated with aqueous test solutions prepared from 10,000 ppm DMSO stock solutions by spraying. After drying, the plates were infested with L2 larvae (6 to 10 per well). The samples were assessed for mortality and growth inhibition in comparison to untreated samples 4 days after infestation.

[2] = test system: Myzus persicae (green peach aphid); experiment: Example B9: Activity against Myzus persicae (green peach aphid), systemic activity; conditions: 144 h, test rate 24 ppm, roots of infested pea seedlings placed into test solution, 6 days
Description: Example B9: Activity Against Myzus persicae (Green Peach Aphid). Systemic Activity
Roots of pea seedlings infested with an aphid population of mixed ages were placed directly into aqueous test solutions prepared from 10,000 DMSO stock solutions. The samples were assessed for mortality 6 days after placing seedlings into test solutions.

[3] = test system: Euschistus heros (neotropical brown stink bug); experiment: Example B2: Activity against Euschistus heros (neotropical brown stink bug); conditions: 120 h, application rate 200 ppm, soybean leaves sprayed, N2 nymphs, 5 days after infestation, read-out: effect in at least one of the two categories (mortality or growth inhibition)
Description: Example B2: Activity Against Euschistus heros (Neotropical Brown Stink Bug)
Soybean leaves on agar in 24-well microtiter plates were sprayed with aqueous test solutions prepared from 10,000 ppm DMSO stock solutions. After drying the leaves were infested with N2 nymphs. The samples were assessed for mortality and growth inhibition in comparison to untreated samples 5 days after infestation.

[4] = test system: Plutella xylostella (diamond back moth); experiment: Example B5: Activity against Plutella xylostella (diamond back moth); conditions: 192 h, application rate 200 ppm, artificial diet treated by pipetting, eggs, 8 days after infestation, read-out: effect in at least one of the two categories (mortality or growth inhibition)
Description: Example B5: Activity Against Plutella xylostella (Diamond Back Moth)
24-well microtiter plates with artificial diet were treated with aqueous test solutions prepared from 10,000 ppm DMSO stock solutions by pipetting. After drying, Plutella eggs were pipetted through a plastic stencil onto a gel blotting paper and the plate was closed with it. The samples were assessed for mortality and growth inhibition in comparison to untreated samples 8 days after infestation. The following compounds gave an effect of at least 80% in at least one of the two categories (mortality or growth inhibition) at an application rate of 200 ppm: P1, P2, P4, P5, P6, P7, P9, P10, P11, P12, P13, P14, P15, P16, P17, P18.

[5] = test system: Chilo suppressalis (striped rice stemborer); experiment: Example B8: Activity against Chilo suppressalis (striped rice stemborer); conditions: 144 h, application rate 200 ppm, artificial diet treated by pipetting, L2 larvae, 6 days after infestation, read-out: control (mortality, anti-feeding effect or growth inhibition)
Description: Example B8: Activity Against Chilo suppressalis (Striped Rice Stemborer)
24-well microtiter plates with artificial diet were treated with aqueous test solutions prepared from 10,000 ppm DMSO stock solutions by pipetting. After drying, the plates were infested with L2 larvae (6-8 per well). The samples were assessed for mortality, anti-feeding effect, and growth inhibition in comparison to untreated samples 6 days after infestation. Control of Chilo suppressalis by a test sample is given when at least one of the categories mortality, anti-feedant effect, and growth inhibition is higher than the untreated sample.

[6] = test system: Myzus persicae (green peach aphid); experiment: Example B4: Activity against Myzus persicae (green peach aphid), feeding/contact activity; conditions: foliar, 144 h, application rate 200 ppm, sunflower leaf discs sprayed, aphid population of mixed ages, 6 days after infestation
Description: Example B4: Activity Against Myzus persicae (Green Peach Aphid) Feeding/Contact Activity
Sunflower leaf discs were placed onto agar in a 24-well microtiter plate and sprayed with aqueous test solutions prepared from 10,000 ppm DMSO stock solutions. After drying, the leaf discs were infested with an aphid population of mixed ages. The samples were assessed for mortality 6 days after infestation.

[7] = test system: Spodoptera littoralis (Egyptian cotton leaf worm); experiment: Example B6: Activity against Spodoptera littoralis (Egyptian cotton leaf worm); conditions: foliar, 72 h, application rate 200 ppm, cotton leaf discs sprayed, L1 larvae, 3 days after infestation, read-out: control (mortality, anti-feeding effect or growth inhibition)
Description: Example B6: Activity Against Spodoptera littoralis (Egyptian Cotton Leaf Worm)
Cotton leaf discs were placed onto agar in 24-well microtiter plates and sprayed with aqueous test solutions prepared from 10,000 ppm DMSO stock solutions. After drying the leaf discs were infested with five L1 larvae. The samples were assessed for mortality, anti-feeding effect, and growth inhibition in comparison to untreated samples 3 days after infestation. Control of Spodoptera littoralis by a test sample is given when at least one of the categories mortality, anti-feedant effect, and growth inhibition is higher than the untreated sample.

CCS(=O)(=O)c1c(N2Cc3ncc(C(F)(F)F)cc3C2=O)nc(-c2cnn(C3CC3)c2)n1C [Compound P2, 6-[2-(1-cyclopropylpyrazol-4-yl)-5-ethylsulfonyl-1-methyl-imidazol-4-yl]-3-(trifluoromethyl)-7H-pyrrolo[3,4-b]pyridin-5-one]
≥ 80%: mortality or growth inhibition at 200 ppm [1] | mortality at 24 ppm [2] | percent effect (mortality or growth inhibition) at 200 ppm [3] | effect (mortality or growth inhibition) at 200 ppm [4] | control at 200 ppm [5] | mortality at 200 ppm [6] | control at 200 ppm [7]

CCS(=O)(=O)c1c(N2Cc3ncc(C(F)(F)F)cc3C2=O)nc(C2CC(C3CC3)=NO2)n1C (stereo not drawn) [Compound P3, 6-[2-(3-cyclopropyl-4,5-dihydroisoxazol-5-yl)-5-ethylsulfonyl-1-methyl-imidazol-4-yl]-3-(trifluoromethyl)-7H-pyrrolo[3,4-b]pyridin-5-one]
≥ 80%: control at 200 ppm [5]

CCS(=O)(=O)c1c(N2Cc3ncc(C(F)(F)F)cc3C2=O)nc(-c2cnn(CC3(C#N)CC3)c2)n1C [Compound P4, 1-[[4-[5-ethylsulfonyl-1-methyl-4-[5-oxo-3-(trifluoromethyl)-7H-pyrrolo[3,4-b]pyridin-6-yl]imidazol-2-yl]pyrazol-1-yl]methyl]cyclopropane-carbonitrile]
≥ 80%: mortality at 24 ppm [2] | percent effect (mortality or growth inhibition) at 200 ppm [3] | effect (mortality or growth inhibition) at 200 ppm [4] | control at 200 ppm [5] | mortality at 200 ppm [6]

CCS(=O)(=O)c1c(N2Cc3ncc(C(F)(F)F)cc3C2=O)nc(-c2cnn(CC(F)F)c2)n1C [Compound P5, 6-[2-[1-(2,2-difluoroethyl)pyrazol-4-yl]-5-ethylsulfonyl-1-methyl-imidazol-4-yl]-3-(trifluoromethyl)-7H-pyrrolo[3,4-b]pyridin-5-one]
≥ 80%: mortality at 24 ppm [2] | percent effect (mortality or growth inhibition) at 200 ppm [3] | effect (mortality or growth inhibition) at 200 ppm [4] | control at 200 ppm [5] | mortality at 200 ppm [6] | control at 200 ppm [7]

CCS(=O)(=O)c1c(N2Cc3ncc(C(F)(F)F)cc3C2=O)nc(OCC(F)(F)F)n1C [Compound P6, 6-[5-ethylsulfonyl-1-methyl-2-(2,2,2-trifluoroethoxy)imidazol-4-yl]-3-(trifluoromethyl)-7H-pyrrolo[3,4-b]pyridin-5-one]
≥ 80%: mortality or growth inhibition at 200 ppm [1] | mortality at 24 ppm [2] | effect (mortality or growth inhibition) at 200 ppm [4] | control at 200 ppm [5] | mortality at 200 ppm [6] | control at 200 ppm [7]

CCS(=O)(=O)c1c(N2Cc3ccc(OC(F)(F)F)cc3C2=O)nc(-c2cncnc2)n1C [Compound P7, 2-(5-ethylsulfonyl-1-methyl-2-pyrimidin-5-yl-imidazol-4-yl)-6-(trifluoromethoxy)isoindolin-1-one]
≥ 80%: effect (mortality or growth inhibition) at 200 ppm [4] | control at 200 ppm [5] | control at 200 ppm [7]

CCS(=O)(=O)c1c(N2Cc3ncc(C(F)(F)F)cc3C2=O)nc(-c2cncnc2)n1C [Compound P8, 6-(5-ethylsulfonyl-1-methyl-2-pyrimidin-5-yl-imidazol-4-yl)-3-(trifluoromethyl)-7H-pyrrolo[3,4-b]pyridin-5-one]
≥ 80%: mortality at 24 ppm [2]

CCS(=O)(=O)c1c(N2Cc3ccc(OC(F)(F)F)cc3C2=O)nc(-c2ncccn2)n1C [Compound P11, 2-(5-ethylsulfonyl-1-methyl-2-pyrimidin-2-yl-imidazol-4-yl)-6-(trifluoromethoxy)isoindolin-1-one]
≥ 80%: mortality or growth inhibition at 200 ppm [1] | mortality at 24 ppm [2] | percent effect (mortality or growth inhibition) at 200 ppm [3] | effect (mortality or growth inhibition) at 200 ppm [4] | control at 200 ppm [5] | mortality at 200 ppm [6]

CCS(=O)(=O)c1c(N2Cc3ncc(C(F)(F)F)cc3C2=O)nc(-c2ncccn2)n1C [Compound P12, 6-(5-ethylsulfonyl-1-methyl-2-pyrimidin-2-yl-imidazol-4-yl)-3-(trifluoromethyl)-7H-pyrrolo[3,4-b]pyridin-5-one]
≥ 80%: mortality or growth inhibition at 200 ppm [1] | mortality at 24 ppm [2] | percent effect (mortality or growth inhibition) at 200 ppm [3] | effect (mortality or growth inhibition) at 200 ppm [4] | control at 200 ppm [5] | mortality at 200 ppm [6]

CCS(=O)(=O)c1c(N2Cc3ncc(C(F)(F)F)cc3C2=O)nc(-n2cc(C(F)(F)F)cn2)n1C [Compound P14, 6-[5-ethylsulfonyl-1-methyl-2-[4-(trifluoromethyl)pyrazol-1-yl]imidazol-4-yl]-3-(trifluoromethyl)-7H-pyrrolo[3,4-b]pyridin-5-one]
≥ 80%: mortality or growth inhibition at 200 ppm [1] | percent effect (mortality or growth inhibition) at 200 ppm [3] | effect (mortality or growth inhibition) at 200 ppm [4] | control at 200 ppm [5] | mortality at 200 ppm [6] | control at 200 ppm [7]

CCS(=O)(=O)c1c(N2Cc3ncc(C(F)(F)F)cc3C2=O)nc(-n2ccc(C3CC3)n2)n1C [Compound P15, 6-[2-(3-cyclopropylpyrazol-1-yl)-5-ethylsulfonyl-1-methyl-imidazol-4-yl]-3-(trifluoromethyl)-7H-pyrrolo[3,4-b]pyridin-5-one]
≥ 80%: mortality or growth inhibition at 200 ppm [1] | percent effect (mortality or growth inhibition) at 200 ppm [3] | effect (mortality or growth inhibition) at 200 ppm [4] | mortality at 200 ppm [6] | control at 200 ppm [7]

CCS(=O)(=O)c1c(N2Cc3ncc(C(F)(F)F)cc3C2=O)nc(-n2ccc(Cl)n2)n1C [Compound P16, 6-[2-(3-chloropyrazol-1-yl)-5-ethylsulfonyl-1-methyl-imidazol-4-yl]-3-(trifluoromethyl)-7H-pyrrolo[3,4-b]pyridin-5-one]
≥ 80%: mortality or growth inhibition at 200 ppm [1] | percent effect (mortality or growth inhibition) at 200 ppm [3] | effect (mortality or growth inhibition) at 200 ppm [4] | control at 200 ppm [5] | mortality at 200 ppm [6] | control at 200 ppm [7]

CCS(=O)(=O)c1c(N2Cc3ncc(C(F)(F)F)cc3C2=O)nc(-c2ccc(C3(C#N)CC3)cc2)n1C [Compound P18, 1-[4-[5-ethylsulfonyl-1-methyl-4-[5-oxo-3-(trifluoromethyl)-7H-pyrrolo[3,4-b]pyridin-6-yl]imidazol-2-yl]phenyl]cyclopropane-carbonitrile]
≥ 80%: mortality or growth inhibition at 200 ppm [1] | effect (mortality or growth inhibition) at 200 ppm [4] | control at 200 ppm [5] | mortality at 200 ppm [6] | control at 200 ppm [7]
